From ChEMBL document CHEMBL1123919, “Molecular modification of anticholinergics as probes for muscarinic receptors. 3. Conformationally restricted analogues of benactyzine” (J Med Chem, 1987) come the findings set out here.

Assay [1] concerns the target Muscarinic acetylcholine receptor. Description: Compound was evaluated for the inhibition of binding of [3H]QNB (quinuclidinyl benzilate) to striatal Muscarinic acetylcholine receptor. Type of assay: protein assay.
The species entered for assay [2] is Rattus norvegicus. Put plainly: Antimuscarinic potency is measured as its ability to block ACh-induced contractions of the rat ileum. Type of assay: functional. Particulars: read-out: pA2 (converted).

In turn, `CCN(CC)CCC1COC(c2ccccc2)(c2ccccc2)C1=O.Cl` (stereo not given) gave a half-maximal inhibitory concentration (IC50) in assay [1] of 2000 nM. In assay [2], the Kb is 447 nM.
Take `CCN(CC)CC[C@@H]1COC(c2ccccc2)(c2ccccc2)[C@@H]1O`: the Kb in assay [2] was 646 nM.
As to `CCN(CC)CC[C@H]1COC(c2ccccc2)(c2ccccc2)[C@@H]1O`, the Kb in assay [2] is 20000 nM.
For `CCN(CC)C[C@H]1C[C@@H]2COC(c3ccccc3)(c3ccccc3)[C@@H]2O1.Cl`, in assay [1], the IC50 was found to be 19000 nM.
